“Also recorded” adds a separate entry of the source.
Tests used:
BK:LINGO2 channels [1] = experiment: Effect of Ch-T on BK:LINGO2 currents at different voltages (GV curves); format: cell-based, rabbit BKα, human LINGO2
Procedure: (§1) All excised patch experiments were performed at 37 °C in 140 mM symmetrical K^+ solutions which contained 140 mM KCl, 10 mM glucose, 10 mM Hepes, and either 1 mM ethylene glycol-bis(β-amino ether)-N,N,N′,N′-tetraacetic acid (EGTA (for free [Ca^2+] 100 nM to 300 nM) or 1 mM hydroxyethylethylenediaminetriacetic acid (HEDTA for free [Ca^2+] 1 μM to 10 μM) and the pH of all solutions was adjusted to 7.2 with KOH. These solutions were made with double-distilled, deionized, filtered water from a MilliQ water purification system. The pipette solution contained 100 nM free Ca^2+. We used “Chelator” (https://www.ru.nl/animal/research/chelator/) to calculate the total amount of Ca^2+ required, as per Schoenmakers et al., ([40]) and free Ca^2+ concentrations were checked with a Ca^2+ sensitive electrode.
(§2) During experiments, the dish containing HEK cells was superfused with Hanks solution, which contained (in mM) 129.8 Na^+, 5.8 K^+, 135 Cl^-, 4.17 HCO3^-, 0.34 HPO4^2-, 0.44 H2PO4^-, 1.8 Ca^2+, 0.9 Mg^2+, 0.4 SO4^2-, 10 glucose, 2.9 sucrose, and 10 Hepes, and its pH was adjusted to 7.4 with NaOH. In addition, the patch under study was continuously superfused by means of a close delivery system consisting of a pipette (tip diameter 200 μm) placed approximately 300 μm away from the cell. This could be switched, with a dead-space time of around 5 s, to a solution containing a drug.
(§3) Electrodes were pulled from Corning borosilicate glass (1.5 mm O.D. × 0.86 mm I.D.) using a Sutter P-97 pipette puller and fire polished using a Narashige MF 83 microforge. Pipettes had resistances of 2 to 5 MΩ when filled with recording solutions and series resistance was compensated by up to 80%. Standard single-channel patch clamp recording methods were used. Voltage clamp commands were delivered via an Axopatch 200B patch clamp amplifier (Axon Instruments) connected to a Digidata 1322A AD/DA converter (Axon Instruments) interfaced to computers running pClamp software (Axon Instruments). Data was acquired at 100 KHz and filtered at 2 KHz or 5 KHz. Patches were held at either −60 mV or −100 mV and depolarized in 20 mV increments to 200 mV. Residual capacitance and leakage currents were subtracted using either a P/4 protocol or offline by manual leak subtraction.
The human LINGO2 transcript used [NM_001354575.2] was untagged in a pcDNA 3.1 vector (VectorBuilder). The α subunit of the rabbit BK channel was isolated from rabbit urethral smooth muscle and cloned using the pcDNA TOPO DNA cloning kit (Life Technologies). The identifiesd transcript corresponded to the ZERO variant of mouse BKα and to variant 2 (NM_002247.3) of human BKα. We used 100 ng ml^−1 cDNA for BKα only transfections, whereas a 100:500 ng ml^−1 cDNA ratio was used for BKα:LINGO2 and BKα:LINGO1 cotransfections for inside-out patch recordings. GFP (150 ng ml^−1) was included in all transfections except those used for Figure 2, C and D. cDNA was transiently transfected into HEK cells using lipofectamine. Site-directed mutagenesis used the Phusion kit (Thermo Fisher Scientific) method ([41]) and all mutations were confirmed by sequencing. […]
G was derived from peak currents according to Ohm’s law[1] […] Summary data was expressed as the […]. […] For BK constructs, data from each patch was normalized to the peak conductance measured in either 1 μM or 10 μM Ca^2+ to obtain Gmax, and curves were constrained to the Gmax value obtained in this. […]

BKα currents = experiment: Effect of Ch-T on BKα currents in absence of LINGO2 (inside-out patch); format: cell-based, rabbit
Procedure: as §1
During experiments, the dish containing HEK cells was superfused with Hanks solution, which contained (in mM) 129.8 Na^+, 5.8 K^+, 135 Cl^-, 4.17 HCO3^-, 0.34 HPO4^2-, 0.44 H2PO4^-, 1.8 Ca^2+, 0.9 Mg^2+, 0.4 SO4^2-, 10 glucose, 2.9 sucrose, and 10 Hepes, and its pH was adjusted to 7.4 with NaOH. […]
(§4) All data is presented as mean ± SD and was analyzed with Prism software (GraphPad). […] Statistical differences were assessed using either paired or unpaired nonparametric tests (Wilcoxin signed-rank test, Mann–Whitney test), or the extra sum of squares F-test, as appropriate. […]

BKα:LINGO2 = experiment: Effect of Ch-T on steady-state voltage-dependent inactivation (double pulse protocol); format: cell-based, rabbit BKα, human LINGO2; conditions: 200 μM Chloramine-T, 2 min, 100 nM Ca2+, control inactivation V1/2 36±5 mV, n = 6
Procedure: All excised patch experiments were performed at 37 °C in 140 mM symmetrical K^+ solutions which contained 140 mM KCl, 10 mM glucose, 10 mM Hepes, and either 1 mM ethylene glycol-bis(β-amino ether)-N,N,N′,N′-tetraacetic acid (EGTA (for free [Ca^2+] 100 nM to 300 nM) or 1 mM hydroxyethylethylenediaminetriacetic acid (HEDTA for free [Ca^2+] 1 μM to 10 μM) and the pH of all solutions was adjusted to 7.2 with KOH. These solutions were made with double-distilled, deionized, filtered water from a MilliQ water purification system. The pipette solution contained 100 nM free Ca^2+. We used “Chelator” (https://www.ru.nl/animal/research/chelator/) to calculate the total amount of Ca^2+ required, as per Schoenmakers et al., ([40]) and free Ca^2+ concentrations were checked with a Ca^2+ sensitive electrode. […]
Inactivation curves were fitted with a similar Boltzmann function:[3] I/Imax=1/{1+exp[±(V1/2−Vc)/K]} where, I was the current recorded at the test step, Imax was the maximal current recorded, Vc was the conditioning potential (see RESULTS), and K was the slope factor.
as §4

BK:LINGO2 M605L mutant = experiment: Effect of Ch-T on BK:LINGO2 M605L currents (inside-out patch); format: cell-based, rabbit BKα, human LINGO2
Procedure: as §1, §2, §3
The human LINGO2 transcript used [NM_001354575.2] was untagged in a pcDNA 3.1 vector (VectorBuilder). The α subunit of the rabbit BK channel was isolated from rabbit urethral smooth muscle and cloned using the pcDNA TOPO DNA cloning kit (Life Technologies). […]
as §4

BK:LINGO2 M603L mutant = experiment: Effect of Ch-T on BK:LINGO2 M603L currents (inside-out patch); format: cell-based, rabbit BKα, human LINGO2
Procedure: as §1, §2
Electrodes were pulled from Corning borosilicate glass (1.5 mm O.D. × 0.86 mm I.D.) using a Sutter P-97 pipette puller and fire polished using a Narashige MF 83 microforge. Pipettes had resistances of 2 to 5 MΩ when filled with recording solutions and series resistance was compensated by up to 80%. Standard single-channel patch clamp recording methods were used. […]
as §4

BK:LINGO2 channels [2] = experiment: Effect of oxidizing/reducing agents on BK:LINGO2 currents (inside-out patch, step to +160 mV); format: cell-based, rabbit BKα, human LINGO2; conditions: 200 μM Ch-T, 100 nM Ca2+
Procedure: as §1, §2, §3
The human LINGO2 transcript used [NM_001354575.2] was untagged in a pcDNA 3.1 vector (VectorBuilder). The α subunit of the rabbit BK channel was isolated from rabbit urethral smooth muscle and cloned using the pcDNA TOPO DNA cloning kit (Life Technologies). The identifiesd transcript corresponded to the ZERO variant of mouse BKα and to variant 2 (NM_002247.3) of human BKα. We used 100 ng ml^−1 cDNA for BKα only transfections, whereas a 100:500 ng ml^−1 cDNA ratio was used for BKα:LINGO2 and BKα:LINGO1 cotransfections for inside-out patch recordings. GFP (150 ng ml^−1) was included in all transfections except those used for Figure 2, C and D. cDNA was transiently transfected into HEK cells using lipofectamine. Site-directed mutagenesis used the Phusion kit (Thermo Fisher Scientific) method ([41]) and all mutations were confirmed by sequencing.
HEK293 cells were cultured in Dulbecco's modified Eagle's medium + MEM media containing 10% fetal bovine serum and 1% Penicillin-Streptomycin antibiotics at 37 °C, and 95% humidifying incubator containing 5% CO2. Subculturing was done by 0.05% Trypsin-EDTA solution.
All data is presented as mean ± SD and was analyzed with Prism software (GraphPad). Individual data points are also shown in bar charts. Statistical differences were assessed using either paired or unpaired nonparametric tests (Wilcoxin signed-rank test, Mann–Whitney test), or the extra sum of squares F-test, as appropriate. Comparisons of three or more nonparametric data sets used Friedman’s test followed by Dunn’s test for multiple comparisons, whereas ANOVA was used for three or more parametric data sets. p < 0.05 was taken as significant.

With `Cc1ccc(S(=O)(=O)NCl)cc1` [Ch-T, Chloramine T] the “Inactivation after Ch-T, family of voltages” value (BK:LINGO2 channels [1]; 100 nM Ca2+, -100 to +200 mV) was “inactivation was practically abolished; also recorded: increased current amplitude and practically abolished inactivation”, the “Half maximal activation voltage V1/2 after Ch-T” value (BK:LINGO2 channels [1]; 100 nM Ca2+, Ch-T 2 min, before Ch-T 128 ± 3 mV, n = 7, Boltzmann fit) was 86 ± 11 mV and the “Inactivation and current amplitude after Ch-T, family of voltages” value (BK:LINGO2 channels [1]; 10 μM Ca2+, 200 μM Ch-T, -100 to +200 mV) was “the current amplitude was increased at all voltages recorded, and inactivation was practically abolished”. For the same compound, the “G/Gmax at -60 mV in Ch-T” value (BK:LINGO2 channels [1]; 10 μM Ca2+, -60 mV, 200 μM Ch-T, before 0.06 ± 0.02, n = 6, p < 0.05) was 0.48 ± 0.27, the “Open probability of BK:LINGO2 channels / conductance” value (BK:LINGO2 channels [1]; Ch-T in 10 μM Ca2+) was “large increases in G across the voltage range; also recorded: increased the G/Gmax at all voltages; also recorded: significantly increased the open probability of BK:LINGO2 channels” and the “Increase of BKα current amplitude” value (BKα currents; 200 μM Ch-T, up to 210 s, +160 mV, 100 nM Ca2+, n = 4-5, p = 0.43 (not significant)) was 21 ± 27%. The “Effect on BKα current amplitude” value (BKα currents; Ch-T, 4-min application, n = 4 to 5, p = 0.43) was “failed to significantly increase the BKα current amplitude”, the “Steady-state voltage-dependent inactivation after Ch-T” value (BKα:LINGO2) was “no time- or voltage-dependent inactivation was observed” and the “Steady-state voltage-dependent inactivation after Ch-T” value (BKα:LINGO2; listed as Chloramine-T) was “compl etel y abol i shed”. The “Ch-T effectiveness reduction compared to WT BK:LINGO2 currents” value (BK:LINGO2 M605L mutant; M605L vs WT, p < 0.001, Mann-Whitney test) was ~50 % less effective, the “Sustained current, % of peak current amplitude, after an additional 90 s Ch-T” value (BK:LINGO2 M605L mutant; M605L, 200 μM Ch-T, 60 s + additional 90 s, 100 nM Ca2+, +160 mV, control 6 ± 4%, p < 0.01) was 47 ± 25% and the “Sustained current, % of peak current amplitude, after 60 s Ch-T” value (BK:LINGO2 M605L mutant; M605L, 200 μM Ch-T, 60 s, 100 nM Ca2+, +160 mV, control 6 ± 4%, n = 10, p < 0.01) was 15 ± 14%. For the same compound, the “Sustained current, % of peak current amplitude, at end of 210 s application” value (BK:LINGO2 M605L mutant; M605L, 200 μM Ch-T, 210 s, 100 nM Ca2+, +160 mV) was ~50%, the “Sustained current after 60 s Ch-T” value (BK:LINGO2 M603L mutant; 200 μM Ch-T, 60 s, 100 nM Ca2+, +160 mV, control 10 ± 9%, n = 9, p < 0.05) was 17 ± 9% and the “Sustained current after 150 s Ch-T” value (BK:LINGO2 M603L mutant; 200 μM Ch-T, 150 s, 100 nM Ca2+, +160 mV, control 10 ± 9%, n = 9, p < 0.05) was 20 ± 12%. For the same compound, the “Sustained current during Ch-T (summary in figure legend)” value (BK:LINGO2 M603L mutant; Ch-T, 7 to 9 patches) was ~20%, the “Effect on BK:LINGO2 inactivation” value (BK:LINGO2 channels [2]) was “caused rapid abolition of inactivation; also recorded: maintained for the duration of the recording, despite the removal of the oxidizing agent; also recorded: completely abolished inactivation and also increased peak current amplitude; also recorded: inactivation was clearly abolished” and the “Effect on BK:LINGO2 inactivation” value (BK:LINGO2 channels [2]; listed as chloramine-T) was “abolished inactivation”. The “Sustained current amplitude, % of peak current, after 60 s Ch-T” value (BK:LINGO2 channels [2]; 60 s, last 5 ms, control 11 ± 8%, n = 7, p < 0.05, mean ± SD) was 59 ± 39%, the “Sustained current amplitude, % of peak current, after 120 s Ch-T” value (BK:LINGO2 channels [2]; 120 s, last 5 ms, control 11 ± 8%, n = 7, p < 0.05, mean ± SD) was 130 ± 19% and the “Increase of peak current amplitude compared to control” value (BK:LINGO2 channels [2]; 120 s, p < 0.05, n = 7, mean ± SD) was 35 ± 31%.

Reference: PMC10020666, “Oxidation modulates LINGO2-induced inactivation of large conductance, Ca^2+-activated potassium channels” (The Journal of Biological Chemistry, 2023)
